In one experiment the test system is RSV-A2-GFP virus. In words: microbe, parasite or virus in culture. In kind it is cell-based, Human Respiratory Syncytial Virus. The method in brief:
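Assay-ready frozen Calu-1 cells at 20,000 cells/mL were infected with recombinant RSV-A2-GFP (MOI 1.2) in DMEM with 2% FBS. Cells were exposed to 10-point 3-fold compound dilutions for 96 h at 37° C. GFP-positive cells were counted by imaging, with same-well CellTiter-Glo for cytotoxicity, and IC50 and CC50 came from 4-parameter logistic fits.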

The subject of the next experiment is hMPV-GFP virus. In words: microbe, parasite or virus in culture. The class given is cell-based, human metapneumovirus. An outline of the steps: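 VERO cells infected with GFP-expressing hMPV at MOI 1.25 were incubated 48 h at 37 °C with compound in 10-point 3-fold dilutions (typically 40,300–2 nM final). GFP-positive cells were counted by imaging. Same-well CellTiter-Glo gave cytotoxicity, and IC50/CC50 came from 4-parameter logistic fits.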

The mark [1] stands for this setting: Calu-1 cells infected with RSV-A2-GFP, 96 hrs, GFP-expressing cells counted, read-out: RSV EC50.
The mark [2] stands for this setting: VERO cells infected with hMPV-GFP, 48 hrs, GFP-expressing cells counted, read-out: hMPV EC50.
Where [3] appears, read: human respiratory syncytial virus, Calu-1, 96 h, read-out: RSV EC50, Calu-1 cells infected with RSV-A2-GFP, 96 hrs, GFP-expressing cells counted.
Setting [4] is: human metapneumovirus, Vero, 48 h, read-out: hMPV EC50, VERO cells infected with hMPV-GFP, 48 hrs, GFP-expressing cells counted.

Where two headings read alike, the source gives them in different places.

Take `Cc1nc(-c2ncccn2)[nH]c1C(=O)N1C[C@@H]2[C@H](C1)[C@H]2Oc1cc(C(C)(C)N)cc(-c2ccc(F)cc2)n1` [Example 75, ((1R,5S,6s)-6-((4-(2-aminopropan-2-yl)-6-(4-fluorophenyl)pyridin-2-yl)oxy)-3-azabicyclo[3.1.0]hexan-3-yl)(4-methyl-2-(pyrimidin-2-yl)-1H-imidazol-5-yl)methanone]: the results for the EC50 in the experiment on RSV-A2-GFP virus (setting [1]) and with hMPV-GFP virus (setting [2]) were 10 to 100 nM and above 100 nM, respectively.

Consider `Cc1nn(-c2ncccn2)nc1C(=O)N1C[C@@H]2[C@H](C1)[C@H]2Oc1cc(C(C)(C)N)cc(-c2ccc(F)cc2)n1` [Example 76, ((1R,5S,6s)-6-((4-(2-aminopropan-2-yl)-6-(4-fluorophenyl)pyridin-2-yl)oxy)-3-azabicyclo[3.1.0]hexan-3-yl)(5-methyl-2-(pyrimidin-2-yl)-2H-1,2,3-triazol-4-yl)methanone], for which the EC50 is 10 to 100 nM in the experiment on RSV-A2-GFP virus (setting [1]) and above 100 nM with hMPV-GFP virus (setting [2]).

In the case of `CC(C)(N)c1cc(O[C@H]2[C@@H]3CN(C(=O)c4cc(-c5ncccn5)ns4)C[C@@H]32)nc(-c2ccc(F)cc2)c1` [Example 77, ((1R,5S,6s)-6-((4-(2-aminopropan-2-yl)-6-(4-fluorophenyl)pyridin-2-yl)oxy)-3-azabicyclo[3.1.0]hexan-3-yl)(3-(pyrimidin-2-yl)isothiazol-5-yl)methanone], the EC50 with RSV-A2-GFP virus (setting [1]) is below 10 nM; in the experiment on hMPV-GFP virus (setting [2]), above 100 nM.

Turning to `Cc1nc(-c2ncccn2)oc1C(=O)N1C[C@@H]2[C@H](C1)[C@H]2Oc1cc(C(C)(C)N)cc(-c2ccc(F)cc2)n1` [Example 78, ((1R,5S,6s)-6-((4-(2-aminopropan-2-yl)-6-(4-fluorophenyl)pyridin-2-yl)oxy)-3-azabicyclo[3.1.0]hexan-3-yl)(4-methyl-2-(pyrimidin-2-yl)oxazol-5-yl)methanone], the EC50 in the experiment with RSV-A2-GFP virus (setting [3]) was 10 to 100 nM; with hMPV-GFP virus (setting [4]), above 100 nM.

As for `Cc1nn(-c2ncccn2)c(F)c1C(=O)N1C[C@@H]2[C@H](C1)[C@H]2Oc1cc(C(C)(C)N)cc(-c2ccc(F)cc2)n1` [Example 79, ((1R,5S,6s)-6-((4-(2-aminopropan-2-yl)-6-(4-fluorophenyl)pyridin-2-yl)oxy)-3-azabicyclo[3.1.0]hexan-3-yl)(5-fluoro-3-methyl-1-(pyrimidin-2-yl)-1H-pyrazol-4-yl)methanone], the EC50 in the experiment with RSV-A2-GFP virus (setting [3]) was below 10 nM; in the experiment on hMPV-GFP virus (setting [4]), above 100 nM.

Turning to `Cc1nn(-c2ncccn2)cc1C(=O)N1C[C@@H]2[C@H](C1)[C@H]2Oc1cc(C(C)(C)N)cc(-c2ccc(F)c(F)c2)n1` [Example 80, ((1R,5S,6s)-6-((4-(2-aminopropan-2-yl)-6-(3,4-difluorophenyl)pyridin-2-yl)oxy)-3-azabicyclo[3.1.0]hexan-3-yl)(3-methyl-1-(pyrimidin-2-yl)-1H-pyrazol-4-yl)methanone], the EC50 with RSV-A2-GFP virus (setting [3]) was below 10 nM; with hMPV-GFP virus (setting [4]), 10 to 100 nM.

For `Cc1nn(-c2ncccn2)cc1C(=O)N1C[C@@H]2[C@H](C1)[C@H]2Oc1cc(C(C)(C)N)cc(-c2cc(F)c(F)cc2F)n1` [Example 81, ((1R,5S,6s)-6-((4-(2-aminopropan-2-yl)-6-(2,4,5-trifluorophenyl)pyridin-2-yl)oxy)-3-azabicyclo[3.1.0]hexan-3-yl)(3-methyl-1-(pyrimidin-2-yl)-1H-pyrazol-4-yl)methanone], the figures for the EC50 with RSV-A2-GFP virus (setting [1]) and with hMPV-GFP virus (setting [2]) were below 10 nM and 10 to 100 nM, respectively.

Turning to `Cc1nn(-c2ncccn2)cc1C(=O)N1C[C@@H]2[C@H](C1)[C@H]2Oc1cc(C(C)(C)N)cc(-c2cc(F)c(F)c(F)c2)n1` [Example 82, ((1R,5S,6s)-6-((4-(2-aminopropan-2-yl)-6-(3,4,5-trifluorophenyl)pyridin-2-yl)oxy)-3-azabicyclo[3.1.0]hexan-3-yl)(3-methyl-1-(pyrimidin-2-yl)-1H-pyrazol-4-yl)methanone], the EC50 is below 10 nM with RSV-A2-GFP virus (setting [1]) and 10 to 100 nM with hMPV-GFP virus (setting [2]).

As for `Cc1nn(-c2ncccn2)cc1C(=O)N1C[C@@H]2[C@H](C1)[C@H]2Oc1cc(C(C)(C)N)cc(-c2ccc(F)c(Cl)c2)n1` [Example 83, ((1R,5S,6s)-6-((4-(2-aminopropan-2-yl)-6-(3-chloro-4-fluorophenyl)pyridin-2-yl)oxy)-3-azabicyclo[3.1.0]hexan-3-yl)(3-methyl-1-(pyrimidin-2-yl)-1H-pyrazol-4-yl)methanone], the concentration giving a half-maximal response (EC50) with RSV-A2-GFP virus (setting [1]) is below 10 nM; in the experiment with hMPV-GFP virus (setting [2]) it was above 100 nM.

In the case of `Cc1nn(-c2ncccn2)cc1C(=O)N1C[C@@H]2[C@H](C1)[C@H]2Oc1cc(C(C)(C)N)cc(-c2ccc(Cl)c(F)c2)n1` [Example 84, ((1R,5S,6s)-6-((4-(2-aminopropan-2-yl)-6-(4-chloro-3-fluorophenyl)pyridin-2-yl)oxy)-3-azabicyclo[3.1.0]hexan-3-yl)(3-methyl-1-(pyrimidin-2-yl)-1H-pyrazol-4-yl)methanone], the EC50 with RSV-A2-GFP virus (setting [1]) was below 10 nM; with hMPV-GFP virus (setting [2]) it was above 100 nM.

`Cc1nn(-c2ncccn2)cc1C(=O)N1C[C@@H]2[C@H](C1)[C@H]2Oc1cc(C(C)(C)N)cc(-c2ccc(Cl)cc2)n1` [Example 85, ((1R,5S,6s)-6-((4-(2-aminopropan-2-yl)-6-(4-chlorophenyl)pyridin-2-yl)oxy)-3-azabicyclo[3.1.0]hexan-3-yl)(3-methyl-1-(pyrimidin-2-yl)-1H-pyrazol-4-yl)methanone]: the EC50 is below 10 nM in the experiment on RSV-A2-GFP virus (setting [1]) and 10 to 100 nM with hMPV-GFP virus (setting [2]).

As to `Cc1nn(-c2ncccn2)cc1C(=O)N1C[C@@H]2[C@H](C1)[C@H]2Oc1cc(C(C)(C)N)cc(-c2ccc(C(F)(F)F)cc2)n1` [Example 86, ((1R,5S,6s)-6-((4-(2-aminopropan-2-yl)-6-(4-(trifluoromethyl)phenyl)pyridin-2-yl)oxy)-3-azabicyclo[3.1.0]hexan-3-yl)(3-methyl-1-(pyrimidin-2-yl)-1H-pyrazol-4-yl)methanone], the EC50 was below 10 nM in the experiment on RSV-A2-GFP virus (setting [1]) and 10 to 100 nM with hMPV-GFP virus (setting [2]).

For the molecule `Cc1nn(-c2ncccn2)cc1C(=O)N1C[C@@H]2[C@H](C1)[C@H]2Oc1cc(C(C)(C)N)cc(-c2ccc(C(F)(F)F)nc2)n1` [Example 87, ((1R,5S,6s)-6-((4-(2-aminopropan-2-yl)-6′-(trifluoromethyl)-[2,3′-bipyridin]-6-yl)oxy)-3-azabicyclo[3.1.0]hexan-3-yl)(3-methyl-1-(pyrimidin-2-yl)-1H-pyrazol-4-yl)methanone], the EC50 with RSV-A2-GFP virus (setting [1]) was below 10 nM; in the experiment with hMPV-GFP virus (setting [2]), above 100 nM.

Turning to `COc1cc(C(F)(F)F)ccc1-c1cc(C(C)(C)N)cc(O[C@H]2[C@@H]3CN(C(=O)c4cn(-c5ncccn5)nc4C)C[C@@H]32)n1` [Example 88, ((1R,5S,6s)-6-((4-(2-aminopropan-2-yl)-6-(2-methoxy-4-(trifluoromethyl)phenyl)pyridin-2-yl)oxy)-3-azabicyclo[3.1.0]hexan-3-yl)(3-methyl-1-(pyrimidin-2-yl)-1H-pyrazol-4-yl)methanone], the half-maximal effective concentration (EC50) in the experiment with RSV-A2-GFP virus (setting [1]) is below 10 nM; in the experiment with hMPV-GFP virus (setting [2]), above 100 nM.

`Cc1nn(-c2ncccn2)cc1C(=O)N1C[C@@H]2[C@H](C1)[C@H]2Oc1cc(C(C)(C)N)cc(-c2cc3ccccc3[nH]2)n1` [Example 89, ((1R,5S,6s)-6-((4-(2-aminopropan-2-yl)-6-(1H-indol-2-yl)pyridin-2-yl)oxy)-3-azabicyclo[3.1.0]hexan-3-yl)(3-methyl-1-(pyrimidin-2-yl)-1H-pyrazol-4-yl)methanone]: the concentration for a half-maximal effect (EC50) in the experiment on RSV-A2-GFP virus (setting [1]) was below 10 nM; with hMPV-GFP virus (setting [2]), above 100 nM.

Turning to `Cc1nn(-c2ncccn2)cc1C(=O)N1C[C@@H]2[C@H](C1)[C@H]2Oc1cc(C(C)(C)N)cc(C2=CCC(C)(C)CC2)n1` [Example 90, ((1R,5S,6s)-6-((4-(2-aminopropan-2-yl)-6-(4,4-dimethylcyclohex-1-en-1-yl)pyridin-2-yl)oxy)-3-azabicyclo[3.1.0]hexan-3-yl)(3-methyl-1-(pyrimidin-2-yl)-1H-pyrazol-4-yl)methanone], the results for the EC50 in the experiment on RSV-A2-GFP virus (setting [1]) and in the experiment with hMPV-GFP virus (setting [2]) were below 10 nM and above 100 nM, respectively.

On to `CC(C)(N)c1cc(O[C@H]2[C@@H]3CN(C(=O)c4cn(-c5ncccn5)nc4C(F)F)C[C@@H]32)nc(-c2ccc(F)c(F)c2)c1` [Example 91, ((1R,5S,6s)-6-((4-(2-aminopropan-2-yl)-6-(3,4-difluorophenyl)pyridin-2-yl)oxy)-3-azabicyclo[3.1.0]hexan-3-yl)(3-(difluoromethyl)-1-(pyrimidin-2-yl)-1H-pyrazol-4-yl)methanone], for which the EC50 is below 10 nM with RSV-A2-GFP virus (setting [1]) and above 100 nM with hMPV-GFP virus (setting [2]).

As for `CC(C)(N)c1cc(O[C@H]2[C@@H]3CN(C(=O)c4cn(-c5ncccn5)nc4C(F)(F)F)C[C@@H]32)nc(-c2ccc(F)c(F)c2)c1` [Example 92, ((1R,5S,6s)-6-((4-(2-aminopropan-2-yl)-6-(3,4-difluorophenyl)pyridin-2-yl)oxy)-3-azabicyclo[3.1.0]hexan-3-yl)(1-(pyrimidin-2-yl)-3-(trifluoromethyl)-1H-pyrazol-4-yl)methanone], the EC50 was below 10 nM in the experiment on RSV-A2-GFP virus (setting [1]) and above 100 nM with hMPV-GFP virus (setting [2]).

In the case of `CC(C)(N)c1cc(O[C@H]2[C@@H]3CN(C(=O)c4cn(-c5ncccn5)nc4C(F)(F)F)C[C@@H]32)nc(-c2ccc(C(F)(F)F)cc2)c1` [Example 93, ((1R,5S,6s)-6-((4-(2-aminopropan-2-yl)-6-(4-(trifluoromethyl)phenyl)pyridin-2-yl)oxy)-3-azabicyclo[3.1.0]hexan-3-yl)(1-(pyrimidin-2-yl)-3-(trifluoromethyl)-1H-pyrazol-4-yl)methanone], the EC50 with RSV-A2-GFP virus (setting [1]) was below 10 nM; in the experiment on hMPV-GFP virus (setting [2]), above 100 nM.

In general, EC50 refers to the concentration giving half of the maximal effect.

For the origin of these results see patent US12643882B2, “Inhibitors of human respiratory syncytial virus and metapneumovirus” (priority 2022, dated 2026).
